# Measured values: US20210353579A1, “HIGH PENETRATION COMPOSITIONS AND USES THEREOF” (Techfields Pharma Co., Ltd., priority 2006, published 2021)
# Where two headings read alike, the source gives them in different places.
# Legend:
# [1] = Plasma levels after transdermal administration to hairless mice; type: in vivo; settings: for Peak plasma concentration of parent compound after prodrug compound / t, time to peak plasma level of parent compound after prodrug compound: transdermal, 20% in 1 mL isopropanol
# Protocol: Tested compounds (20% solution or suspension in 1 mL isopropanol) are administered transdermally to the skin of intact hairless mice. The plasma levels of the parent compounds are determined by HPLC.
# human skin tissue [2] = settings: pH 7.4
# [3] = Plasma levels after transdermal administration to hairless mice; settings: mouse, in vivo, po
# mice = assay: Analgesic activity, acetic acid writhing; type: in vivo
# Protocol: The prodrug compounds are administered either transdermally or orally. The parent compounds are administered orally. The number of writhing that occurred when mice are administered the acetic acid solution are counted, and the rate of inhibition based on the control group which was not pretreated with any test compounds is calculated. […] The A group is the control group.
# rats = assay: Antipyretic activity, E. coli suspension as pyrogen; type: in vivo; settings: in °C (unit assumed)
# Protocol: Rats are administered with sterilized E. coli suspension as a pyrogen. Each group of rats are administered with a prodrug compounds or parent compounds at a dosage specified below. The prodrug compounds are administered either orally or transdermally. The parent compounds are administered orally.
# [4] = Solubility in water / aqueous solubility of HPPs and parent drugs; settings: for Solubility in water: product as prepared in Example 1
# human skin tissue [5] = assay: In vitro penetration rate through human skin, modified Franz cells; settings: Franz cell; for In vitro penetration rate (apparent flux), prodrug compounds: 20% solution in 0.2 M phosphate buffer pH 7.4, human skin
# [6] = tested on: Human colon cancer cells (LS174J); assay: Human colon cancer xenograft in nude mice, topical; settings: day 30, about 30 μl of 5% solution (1.5 mg) topically applied
# Source text: Human colon cancer cells (LS174J, 2-3 mm^3 of tumor tissue was used in each mouse) are subcutaneously xenografted into the front leg of nude mice (BALB).
# Chinese white rabbits = assay: Malassezia-induced lesions similar to psoriasis; type: in vivo, rabbit; settings: 5% aqueous solution twice per day, 10 days after application
# Source text: Heavy suspensions of Malassezia [Rosenberg, E. W., et al., Mycopathologia, 72, 147-154 (1980)] were applied to the shaved skin on the backs of the Chinese white rabbits (n=4×6) twice (at 7 am and 7 pm) per day for 2 weeks, lesions similar to psoriasis resulted.
# in vivo = settings: rat
# Protocol: The acute toxicity of the prodrug compounds and parent compounds are measured by LD50 of rat.
# C57/BL6 mice, MPTP = assay: MPTP Parkinson's disease mice: GABA and Glu in substantia nigra and striatum; settings: mouse, in vivo
# Protocol: Group A mice were i.p. injected 0.4% sodium carboxymethylcellulos (15 ml/kg per day) for 7 days. Group B and C mice were i.p. injected N-methyl-4-phenyl-1,2,3,6-tetrahydropyridine (MPTP, 30 mg/kg per day) for 7 days. The mice were divided into 2 groups. […] All mice were killed after the last treatment and the brain tissues were quickly frozen at −80° C. […] The contents of GABA and Glu in the striatum and SN were shown by high performance amino acid auto-analyser.
# [7] = tested on: Human breast cancer cells (BCAP-37); assay: Human breast cancer xenograft in nude mice, topical
# Protocol: Human breast cancer cells (BCAP-37, 2-3 mm^3 of tumor tissue was used in each mouse) are subcutaneously xenografted into the front leg of nude mice (BALB, 12 groups, 7 mice each group). […] Then 30 μl of 5% (equal to 1.5 mg of the HPPs) diethylaminoethyl acetylsalicylate.acetylsalicylic acid salt (P-1, in acetone); 1-piperidinepropyl 2[(2,6-dichlorophenyl)amino]benzene acetate.AcOH (P-2, in water), 1-pyrrolidinepropyl 2-(3-benzoylphenyl) propionate.AcOH (P-3, in water), 4-piperidinemethyl 2-(3-phenoxyphenyl)propionate.AcOH (P-4, in water), 3-piperidinemethyl 2-(ρ-isobutylphenyl) propionate.AcOH (P-5, in water), diethylaminoethyl 1-(p-chlorobenzoyl)-5-methoxy-2-methylindole 3-acetate.AcOH (P-11, in water), 2-(4-morpholinyl)ethyl (Z)-5-fluoro-2-methyl-1-[(4-methylsulfinyl) phenylmethylene]-1H-indene-3-acetate.AcOH (P-12, in water), diethylaminoethyl
# [8] = 100 mg/kg transdermally, 30 min before acetic acid
# [9] = 100 mg/kg transdermally, 60 minutes before acetic acid
# [10] = 10 mg/kg orally, 30 min before acetic acid
# [11] = 10 mg/kg transdermally, 30 min before acetic acid
# [12] = 20 mg/kg orally, 30 min before acetic acid
# [13] = 20 mg/kg transdermally, 30 min before acetic acid
# 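Wherever LD50 is given: acute toxicity in rats expressed as LD50, determined for both prodrugs and their parent compounds.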
# 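Wherever LD50 of HPP is given: acute toxicity in rats expressed as LD50, determined for both prodrugs and their parent compounds.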
smiles,measurement,setting,value
"Nc1c(CC(=O)O)cccc1C(=O)c1ccc(Br)cc1 [Bromofenac, bromofenac]",Peak plasma concentration after parent compound,"[1]; mouse, in vivo",0.1 mg/L
same,"In vitro penetration rate (apparent flux), parent compounds",human skin tissue [2],10 μg/cm^2/h
same,"t, time to peak plasma level after parent compound",[3],1 to 2 h
CC(=O)O.CCN(CC)CCOC(=O)C(C)c1ccc2c(c1)[nH]c1ccc(Cl)cc12 (stereo not drawn) [diethylaminoethyl 6-chloro-α-methyl-9H-carbazole-2-acetate.AcOH],Peak plasma concentration of parent compound after prodrug compound,[1]; hairless mice,2000 mg/L
same,"t, time to peak plasma level of parent compound after prodrug compound",[1]; hairless mice,50 min
same,% (rate of writhing inhibition),mice; [8],59%
same,No. of Writhing,mice; [8],14.2
same,"body temperature, t = 0 min",rats; 100 mg/kg transdermally,37.28 ± 0.06
same,"body temperature, t = 90 min",rats; 100 mg/kg transdermally,36.68 ± 0.05
same,"body temperature, t = 180 min",rats; 100 mg/kg transdermally,36.62 ± 0.08
same,"body temperature, t = 270 min",rats; 100 mg/kg transdermally,36.58 ± 0.07
same,LD50 of HPP,rat; rats,700 mg/kg
same,Solubility of HPP,[4]; medium not given,>350 mg/mL
same,Solubility in water,[4],400 mg/mL
same,"In vitro penetration rate (apparent flux), prodrug compounds",human skin tissue [5],4000 μg/cm^2/h
CC(=O)O.CCN(CC)CCOC(=O)c1ccccc1Nc1cccc(C(F)(F)F)c1 [diethylaminoethyl 2-[[(3-(trifluoromethyl)phenyl)amino]benzoate.AcOH],Peak plasma concentration of parent compound after prodrug compound,[1]; hairless mice,20 mg/L
same,"t, time to peak plasma level of parent compound after prodrug compound",[1]; hairless mice,50 min
same,% (rate of writhing inhibition),mice; [9],54%
same,No. of Writhing,mice; [9],16.1
same,"body temperature, t = 0 min",rats; 100 mg/kg transdermally,37.27 ± 0.06
same,"body temperature, t = 90 min",rats; 100 mg/kg transdermally,36.76 ± 0.05
same,"body temperature, t = 180 min",rats; 100 mg/kg transdermally,36.65 ± 0.08
same,"body temperature, t = 270 min",rats; 100 mg/kg transdermally,36.49 ± 0.07
same,LD50 of HPP,rat; rats,800 mg/kg
same,Solubility of HPP,[4]; medium not given,>400 mg/mL
same,"In vitro penetration rate (apparent flux), prodrug compounds",human skin tissue [5],2200 μg/cm^2/h
CC(=O)O.CCN(CC)CCOC(=O)Cc1ccc(C(=O)c2ccc(C)cc2)n1C [diethylaminoethyl 1-methyl-5-(4-methylbenzoyl)-1H-pyrrole-2-acetate.AcOH],Peak plasma concentration of parent compound after prodrug compound,[1]; hairless mice,20 mg/L
same,"t, time to peak plasma level of parent compound after prodrug compound",[1]; hairless mice,50 min
same,% (rate of writhing inhibition),mice; [8],51%
same,No. of Writhing,mice; [8],17.1
same,"body temperature, t = 0 min",rats; 100 mg/kg transdermally,37.27 ± 0.06
same,"body temperature, t = 90 min",rats; 100 mg/kg transdermally,36.71 ± 0.05
same,"body temperature, t = 180 min",rats; 100 mg/kg transdermally,36.65 ± 0.08
same,"body temperature, t = 270 min",rats; 100 mg/kg transdermally,36.59 ± 0.07
same,Mouse weight,[6],21 ± 2 g
same,Tumor size,[6],610 ± 200 mm^3
same,lesions similar to psoriasis,Chinese white rabbits,the lesions were resolved
same,LD50 of HPP,"rat; rat, in vivo",600 mg/kg
same,"In vitro penetration rate (apparent flux), prodrug compounds",human skin tissue [5],1000 μg/cm^2/h
"CC1=C(CC(=O)O)c2cc(F)ccc2/C1=C\c1ccc([S+](C)[O-])cc1 (centres unmarked) [Sulindac, sulindac, reference compound]","t, time to peak plasma level after parent compound",[1]; parent compound administered (time when taken orally),1 to 2 h
same,Peak plasma concentration after parent compound,"[1]; parent compound administered, hairless mice",0.1 mg/L
same,LD50,in vivo,260 mg/kg
same,"In vitro penetration rate (apparent flux), parent compounds","human skin tissue [5]; 20% suspension in 0.2 M phosphate buffer pH 7.4, human skin, detection limit 1",10 μg/cm^2/h
"CC(=O)O.CCN(CC)CCOC(=O)Cc1ccccc1Nc1c(Cl)cccc1Cl [diethylaminoethyl 2[(2,6-dichlorophenyl)amino]benzene acetate.AcOH]",Peak plasma concentration of parent compound after prodrug compound,[1]; hairless mice,2100 mg/L
same,"t, time to peak plasma level of parent compound after prodrug compound",[1]; hairless mice,40 min
same,% (rate of writhing inhibition),mice; [10],64.6%
same,No. of Writhing,mice; [10],12.1
same,% (rate of writhing inhibition),mice; [11],69.9%
same,No. of Writhing,mice; [11],10.3
same,% (rate of writhing inhibition),mice; [12],73.1%
same,No. of Writhing,mice; [12],9.2
same,% (rate of writhing inhibition),mice; [13],74.3%
same,No. of Writhing,mice; [13],8.8
same,"body temperature, t = 0 min",rats; 10 mg/kg orally,37.52 ± 0.07
same,"body temperature, t = 90 min",rats; 10 mg/kg orally,36.50 ± 0.06
same,"body temperature, t = 180 min",rats; 10 mg/kg orally,36.60 ± 0.05
same,"body temperature, t = 270 min",rats; 10 mg/kg orally,36.55 ± 0.08
same,"body temperature, t = 0 min",rats; 10 mg/kg transdermally,37.58 ± 0.06
same,"body temperature, t = 90 min",rats; 10 mg/kg transdermally,36.30 ± 0.06
same,"body temperature, t = 180 min",rats; 10 mg/kg transdermally,36.35 ± 0.08
same,"body temperature, t = 270 min",rats; 10 mg/kg transdermally,36.31 ± 0.07
same,"body temperature, t = 0 min",rats; 20 mg/kg orally,37.54 ± 0.08
same,"body temperature, t = 90 min",rats; 20 mg/kg orally,36.30 ± 0.05
same,"body temperature, t = 180 min",rats; 20 mg/kg orally,36.35 ± 0.07
same,"body temperature, t = 270 min",rats; 20 mg/kg orally,36.38 ± 0.08
same,"body temperature, t = 0 min",rats; 20 mg/kg transdermally,37.59 ± 0.05
same,"body temperature, t = 90 min",rats; 20 mg/kg transdermally,36.25 ± 0.05
same,"body temperature, t = 180 min",rats; 20 mg/kg transdermally,36.30 ± 0.07
same,"body temperature, t = 270 min",rats; 20 mg/kg transdermally,36.20 ± 0.05
same,LD50 of HPP,"rat; rat, in vivo",800 mg/kg
same,Solubility of HPP,[4]; in water,>300 mg/mL
same,Solubility in water,[4],400 mg/mL
same,"In vitro penetration rate (apparent flux), prodrug compounds",human skin tissue [5],5000 μg/cm^2/h
"CC(=O)O.CCN(CC)CCOC(=O)Cc1cc(C)c(C(=O)c2ccc(Cl)cc2)n1C [diethylaminoethyl 5-(4-Chlorobenzoyl)-1,4-dimethyl-1H-pyrrole-2-acetate.AcOH]",Peak plasma concentration of parent compound after prodrug compound,[1]; hairless mice,20 mg/L
same,"t, time to peak plasma level of parent compound after prodrug compound",[1]; hairless mice,50 min
same,% (rate of writhing inhibition),mice; [8],55%
same,No. of Writhing,mice; [8],15.6
same,"body temperature, t = 0 min",rats; 100 mg/kg transdermally,37.21 ± 0.07
same,"body temperature, t = 90 min",rats; 100 mg/kg transdermally,36.82 ± 0.06
same,"body temperature, t = 180 min",rats; 100 mg/kg transdermally,36.70 ± 0.05
same,"body temperature, t = 270 min",rats; 100 mg/kg transdermally,36.70 ± 0.08
same,lesions similar to psoriasis,Chinese white rabbits,the lesions were resolved
same,LD50 of HPP,"rat; rat, in vivo",200 mg/kg
same,"In vitro penetration rate (apparent flux), prodrug compounds",human skin tissue [5],1200 μg/cm^2/h
"NC(=O)C[S+]([O-])C(c1ccccc1)c1ccccc1 (centres unmarked) [modafinil, reference compound]",increase of nigrostriatal Glu release induced by MPTP,"C57/BL6 mice, MPTP",did not change
CC(=O)O.CCN(CC)CCOC(=O)Cc1c(C)n(C(=O)c2ccc(Cl)cc2)c2ccc(OC)cc12 [diethylaminoethyl 1-(p-chlorobenzoyl)-5-methoxy-2-methylindole 3-acetate.AcOH],Peak plasma concentration of parent compound after prodrug compound,[1]; hairless mice,20 mg/L
same,"t, time to peak plasma level of parent compound after prodrug compound",[1]; hairless mice,50 min
same,% (rate of writhing inhibition),mice; [8],55%
same,No. of Writhing,mice; [8],15.6
same,"body temperature, t = 0 min",rats; 100 mg/kg transdermally,37.35 ± 0.06
same,"body temperature, t = 90 min",rats; 100 mg/kg transdermally,36.91 ± 0.05
same,"body temperature, t = 180 min",rats; 100 mg/kg transdermally,36.85 ± 0.08
same,"body temperature, t = 270 min",rats; 100 mg/kg transdermally,36.79 ± 0.07
same,Tumor size,"[7]; day 42, 30 μl of 5% (1.5 mg) topically every 8 hours from day 14, control 800 ± 100",210 ± 100 mm^3
same,Mouse weight,"[7]; mouse, in vivo",21 ± 2 g
same,LD50 of HPP,rat; rats,100 mg/kg
same,Solubility of HPP,[4]; medium not given,>250 mg/mL
same,"In vitro penetration rate (apparent flux), prodrug compounds",human skin tissue [5],1100 μg/cm^2/h
